Several values for one entry are separate records, joined by “and”; a condition that tells them apart may be missing. Equal values may be shown once.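 Dose response: 5 concentrations. Exposure: 48 h. Format: 96-well plates. Endpoint: linear interpolation; highest concentration if not reached. GI50: concentration for 50% inhibition of growth. TGI is the concentration that stops growth completely.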

Holding throughout (experiment): DTP human tumour cell line panel, 48 h
The subject of assay [1] is HL-60(TB) leukemia.
The subject of assay [2] is KM12 colon.
Assay [3] has as its system MDA-MB-435.
Assay [4] has as its system NCI-H522 lung.
In assay [5] the test system is OVCAR-5 ovarian.
Assay [6] concerns SF-539 CNS.
Assay [7] has as its system SK-MEL-28 melanoma.
The subject of assay [8] is SK-OV-3 ovarian.
Assay [9] deals with SW-620 colon.
In assay [10] the test system is TK-10 renal.

For the molecule `COC1CCC(O)C(/C=C/[N+](=O)[O-])C1` (configuration not stated), the TGI (commonly the concentration giving total growth inhibition) in assay [1] came to 5.29 µM; in assay [2] it was 16.9 µM; in assay [3], 3.67 µM; in [4], 23.2 µM; in assay [5] it was 21.5 µM; in assay [6], 16.6 µM. Besides, the TGI in [7] was 54.9 µM; in assay [8], 22.6 µM; in [9], over 100 µM; in assay [10], 16.1 µM.
As to `O=c1cc(N2CCNCC2)oc2c(-c3ccccc3)cccc12`, the GI50 (in general, the concentration at which growth is held to half of that of the control) in assay [1] was 29.4 µM; in assay [2], 43.9 µM; in [3], 20.9 µM; in assay [4] it was 37 µM; in [5] it was over 100 µM; in assay [6] it was 68 µM. Moreover, the GI50 in assay [7] is 39.6 µM; in assay [8] it was 13.8 µM; in assay [9], 82.9 µM; in [10], 27.9 µM. The concentration for total growth inhibition (TGI) was over 100 µM in assay [1]; over 100 µM in [2]; 98.8 µM in assay [3]; over 100 µM in assay [4]; over 100 µM in assay [5]; over 100 µM in assay [6]. Moreover, the TGI in assay [7] was over 100 µM; in [8] it was 42.2 µM; in [9], over 100 µM; in [10], over 100 µM.
`CCOC(=O)C1=C(C)NC2SC(=O)/C(=C\c3ccccc3O)N2C1c1ccccc1` (configuration not stated): the GI50 was 19.6 µM in assay [1]; 16.6 µM in [2]; 19.6 µM in assay [3]; 26.2 µM in assay [4]; 63 µM in [5]; 35.5 µM in [6]. Also, the GI50 was 20.5 µM in assay [7], 52.8 µM in assay [8], 38.5 µM in [9] and 21.3 µM in [10]. Further, the TGI was 54.4 µM in [1]; 43.5 µM in assay [2]; 62.5 µM in [3]; 76.3 µM in [4]; over 100 µM in [5]; over 100 µM in assay [6]. Also, the concentration for total growth inhibition (TGI) in assay [7] was 56.8 µM; in assay [8], over 100 µM; in [9], over 100 µM; in assay [10], 49 µM.
As for `c1ccc(-c2cc(C3CO3)c3ccccc3n2)cc1` (configuration not stated), the TGI was 63.7 µM in assay [1]; 33 µM in assay [2]; 35.5 µM in [3]; 14.6 µM in assay [4]; 40.5 µM in [5]; 56.7 µM in assay [6]. In addition, the TGI is over 100 µM in [7], over 100 µM in [8], 71.3 µM in assay [9] and 53.4 µM in assay [10].
In the case of `CN(N=O)C(=O)N[C@@H](C=O)[C@@H](O)[C@H](O)[C@H](O)CO`, the GI50 in assay [1], in [2], in [4], in [5], in assay [6] and in assay [7] was over 750 µM throughout. Further, the GI50 in assay [8] and in assay [9] was over 750 µM in each case. Moreover, the TGI was over 750 µM in [1]; over 750 µM in assay [2]; over 750 µM in assay [3]; 646 µM and > 750 µM in assay [4]; over 750 µM in assay [5]; over 750 µM in [6]. Also, the TGI in assay [7] is over 750 µM; in assay [8], 622 µM and > 750 µM; in assay [9], 590 µM and > 750 µM; in assay [10] it was over 750 µM.
Regarding `O=C(c1ccco1)c1nc2cc(F)ccc2[n+]([O-])c1C(F)(F)F`, the GI50 in [1] is 18.4 µM; in assay [2] it was 57 µM; in assay [3], 19.2 µM; in [4] it was 14.7 µM; in assay [5], 26.7 µM; in assay [6], over 100 µM. Further, the GI50 in assay [7] is 29.4 µM; in assay [8], 35.3 µM; in assay [9], over 100 µM; in assay [10], 85.3 µM. Also, the TGI is 49.2 µM in assay [1]; over 100 µM in assay [2]; 44 µM in assay [3]; 32.2 µM in assay [4]; 90.6 µM in assay [5]; over 100 µM in assay [6]. Further, the TGI was 95.4 µM in [7], over 100 µM in assay [8], over 100 µM in assay [9] and over 100 µM in assay [10].
Turning to `CN(C)CCNC(=O)Cn1cc([N+](=O)[O-])c(=O)c2ccccc21`, the TGI in assay [1], in assay [2], in assay [3], in assay [4], in assay [5] and in [6] was over 100 µM in each case. In addition, the TGI in assay [7], in assay [8], in assay [9] and in [10] was over 100 µM in each case.
For the molecule `CN1CCN(Cc2ccc(NC(=O)c3cncc(C#Cc4cncc5ncccc45)c3)cc2C(F)(F)F)CC1`, the GI50 in [1] was 0.303 µM; in [2] it was 0.0444 µM; in assay [3] it was 2.03 µM; in assay [4], 3.11 µM; in assay [5] it was 1.8 µM; in assay [6] it was 0.829 µM. In addition, the GI50 in assay [7] was 1.23 µM; in assay [8], 2.89 µM; in assay [9], 1.83 µM; in assay [10], 4.18 µM. Also, the TGI in assay [1] stood at 2.02 µM; in assay [2], 11.7 µM; in [3], 12.9 µM; in [4] it was 17 µM; in assay [5] it was 14 µM; in assay [6], 2.96 µM. For the same molecule, the TGI in [7] was determined as 10.7 µM; in assay [8], 11.3 µM; in assay [9] it was 10.4 µM; in [10] it was 15.4 µM.
Regarding `CC(C)(C#N)c1cc(F)cc(C(=O)Nc2cc(Nc3ncccc3-c3ncnc4nc[nH]c34)ccc2F)c1`, the GI50 in [1] was 0.123 µM; in assay [2] it was 1.73 µM; in assay [3], 0.307 µM; in [4] it was 2.66 µM; in assay [5], 0.451 µM; in [6], 0.527 µM. The GI50 in assay [7] is 0.0746 µM; in assay [8], over 10 µM; in assay [9], 1.13 µM; in [10], over 10 µM. In addition, the TGI in assay [1] was over 10 µM; in [2], over 10 µM; in assay [3], over 10 µM; in assay [4], over 10 µM; in assay [5], over 10 µM; in [6], 5.65 µM. Moreover, the TGI in assay [7], in [8], in assay [9] and in assay [10] was over 10 µM in each case.
For `O=[N+]([O-])c1ccc2c(N3CCC(CCCC4CCN(c5ncnc6cc([N+](=O)[O-])ccc56)CC4)CC3)ncnc2c1`, the GI50 in assay [1] is 17.8 µM; in [2], over 56.7 µM; in [3], over 40.7 µM; in assay [4] it was over 45.9 µM; in assay [5], over 100 µM; in assay [6], over 47.9 µM. Moreover, the GI50 in assay [7] is over 44.7 µM; in assay [8] it was over 46.3 µM; in [9], over 48 µM; in assay [10], over 58.7 µM. The TGI in assay [1], in assay [2], in assay [3], in assay [4], in assay [5] and in assay [6] was over 100 µM each time. In addition, the TGI in [7], in assay [8], in [9] and in assay [10] was over 100 µM in each case.
Regarding `CNC(=O)c1ccc2cc(C3(O)CCn4cncc43)ccc2c1` (configuration not stated), the GI50 in assay [1] was over 73.5 µM; in [2] it was over 100 µM; in assay [3], over 100 µM; in [4], over 100 µM; in [5], over 100 µM; in assay [6], over 100 µM. The GI50 in assay [7], in assay [8], in assay [9] and in [10] was over 100 µM in each case. For the same molecule, the TGI in assay [1], in [2], in assay [3], in assay [4], in [5] and in assay [6] was over 100 µM in each case. For the same molecule, the TGI in assay [7], in assay [8], in assay [9] and in assay [10] was over 100 µM each time.
Consider `O=C(Nc1cccc(Oc2nnc(Cl)c3ccccc23)c1)Nc1ccc(Cl)c(C(F)(F)F)c1`, for which the GI50 is 0.372 µM in assay [1]; 0.701 µM in [2]; 0.791 µM in [3]; 0.499 µM in [4]; 1.24 µM in assay [5]; 1.38 µM in assay [6]. Moreover, the GI50 was 0.933 µM in assay [7], 2.66 µM in assay [8], 1.92 µM in assay [9] and 2.32 µM in [10]. Further, the TGI in [1] is 6.06 µM; in assay [2], 2.97 µM; in [3], 3.24 µM; in assay [4] it was 3.46 µM; in assay [5] it was 4.26 µM; in assay [6], 4.01 µM. Moreover, the TGI amounted to 3.54 µM in [7], 6.7 µM in assay [8], 4.9 µM in [9] and 6.55 µM in assay [10].
As to `CN(C)CCOc1ccc(/C(=C(/CCCl)c2ccccc2)c2ccccc2)cc1`, the GI50 in assay [1] was 1.06 µM; in assay [2] it was 1.18 µM; in [3], 0.894 µM; in assay [4], 0.9 µM; in assay [5], 1.52 µM; in assay [6], 0.891 µM. Also, the GI50 in assay [7] is 0.912 µM; in assay [8], 1.62 µM; in assay [9], 0.898 µM; in [10] it was 0.991 µM. The TGI in [1] was 2.11 µM and 15 µM; in [2], 12.8 µM and 32.4 µM; in assay [5] it was 5.09 µM and 33.5 µM; in assay [8] it was 5.07 µM.
For `O=C(Nc1ccc(Oc2ccc3nc(NC(=O)c4ccccc4)[nH]c3c2)cc1)Nc1cc(C(F)(F)F)ccc1F`, the GI50 in assay [1] is 0.738 µM; in assay [2], 0.244 µM; in assay [3], 0.709 µM; in assay [4] it was 1.6 µM; in assay [5], 4.41 µM; in assay [6], 1.81 µM. Further, the GI50 is 1.61 µM in assay [7], 4.38 µM in [8], 1.27 µM in assay [9] and 2.61 µM in assay [10]. Also, the TGI in assay [1] was 3.29 µM; in assay [2], 2 µM; in assay [3], 2.94 µM; in assay [4] it was over 14.9 µM; in assay [5], over 25 µM; in [6], 18.5 µM. The TGI in assay [7] is 12.9 µM; in [8] it was 16.5 µM; in [9], over 25 µM; in [10], 22 µM.
Regarding `CCOC(=O)c1c2c(n(Cc3ccccc3)c1C)-c1ccccc1C(=O)C2=O`, the GI50 in assay [1] was 79.4 µM; in [2] it was 19.8 µM; in [3] it was 29 µM; in assay [4], 14.8 µM; in assay [5], 15.5 µM; in assay [6] it was 18.7 µM. The GI50 in assay [7] was 16.4 µM; in assay [8] it was 19.8 µM; in [9] it was 11.7 µM; in assay [10] it was 16.3 µM. Also, the TGI in assay [1] was over 100 µM; in [2], 65.3 µM; in assay [3] it was 87 µM; in [4] it was 35.5 µM; in assay [5], 40.4 µM; in [6], 34.4 µM. Further, the TGI in assay [7] amounted to 41.4 µM; in assay [8], 37.2 µM; in [9], 28.4 µM; in [10], 34.6 µM.
In the case of `CC(=O)c1cc2c(cc1Nc1c3ccccc3nc3occ(Cl)c13)OCO2`, the GI50 in assay [1] is 0.0647 µM; in assay [2], 0.0556 µM; in assay [3], 0.0444 µM; in [4] it was 0.0402 µM; in assay [5], 0.616 µM; in assay [6], 0.0302 µM. Further, the GI50 was 0.541 µM in assay [7], 0.781 µM in assay [8], 0.0344 µM in assay [9] and 0.409 µM in assay [10]. For the same molecule, the TGI is 0.57 µM in assay [1]; 0.494 µM in assay [2]; 0.161 µM in assay [3]; 1.46 µM in assay [4]; over 100 µM in assay [5]; 0.0998 µM in assay [6]. Also, the TGI in assay [7], in assay [8], in assay [9] and in assay [10] was over 100 µM throughout.

The values are drawn from PubChem BioAssay (NCI).
